# Experimental data from patent US5846942A, “Cholecystokinin antagonists, their preparation and therapeutic use” (Warner-Lambert Company, priority 1996, dated 1998).
# Biological target: T1, Central CCK Receptors (Mus musculus, UniProt P56481)
# T1 construct: from tissue; host or cells: cerebral cortex membranes of male CFLP mice (30-40 g)
# T1 sequence (P56481 1-453): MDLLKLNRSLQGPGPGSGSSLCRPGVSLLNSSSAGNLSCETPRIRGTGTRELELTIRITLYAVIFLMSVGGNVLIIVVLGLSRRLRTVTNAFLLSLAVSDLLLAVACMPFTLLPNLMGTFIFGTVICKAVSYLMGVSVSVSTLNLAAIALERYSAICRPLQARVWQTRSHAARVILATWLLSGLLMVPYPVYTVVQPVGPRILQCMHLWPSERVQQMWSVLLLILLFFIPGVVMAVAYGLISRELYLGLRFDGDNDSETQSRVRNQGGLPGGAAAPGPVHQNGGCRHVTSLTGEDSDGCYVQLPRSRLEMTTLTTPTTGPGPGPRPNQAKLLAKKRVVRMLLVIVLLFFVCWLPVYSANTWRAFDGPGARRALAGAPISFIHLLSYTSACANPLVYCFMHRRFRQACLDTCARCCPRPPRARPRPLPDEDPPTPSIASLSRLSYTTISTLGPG
# Experiment: Binding to central CCK receptors, displacement of tritiated pentagastrin from cerebral cortical membranes of male CFLP mice
# Parameters: species or system mouse (male CFLP)
# Conditions: cerebral cortexes taken from male CFLP mice; 2 nM tritiated-pentagastrin
# Experimental: The biological activity of compounds of the present invention was evaluated employing an initial screening test which rapidly and accurately measured the binding of the tested compound to known CCK receptor sites. […] (See Hays et al, Neuropeptides 1:53-62, 1980; and Satuer et al, Science 208:1155-1156, 1980).
# In this screening test, the cerebral cortices taken from male CFLP mice weighing between 30-40 g were dissected on ice, weighed, and homogenized in 10 volumes of 50 mM Tris-HCl buffer (pH 7.4 at 0°-4° C.). The resulting suspension was centrifuged, the supernate was discarded, and the pellet was washed by resuspension in Tris-HCl buffer followed by recentrifugation. The final pellet was resuspended in 20 volumes of […] Hepes buffer (pH 7.2 at 23° C.) containing 130 mM NaCl, […] KCl, […] MgCl2, […] EDTA, 5 mg/mL bovine albumin, and bacitracin (0.25 mg/mL).
# In saturation studies, cerebral cortical membranes were incubated at 23° C. for 120 minutes in a final volume of 500 μL of Hepes incubation buffer (pH 7.2) together with […] tritiated-pentagastrin (Amersham International, England).
# In the displacement experiments, membranes were incubated with a single concentration (2 nM) of ligand, together with increasing concentrations (10^-11 to […]) of competitive test compound. In each case, the nonspecific binding was defined as that persisting in the presence of the unlabeled octapeptide CCK26-33 (10^-6 M)
# Following incubation, radioactivity bound to membranes was separated from that free in solution by rapid filtration through Whatman GF/B filters and washed three times with 4 mL of ice cold Tris-HCl buffer. Filters from samples incubated with tritiated-pentagastrin were placed in polyethylene vials with 4 mL of scintillation cocktail, and the radioactivity was estimated by liquid scintillation spectrometry (efficiency 47-52%).
# Saturation curves for specific tritiated- pentagastrin binding to mouse cortical membranes were analyzed by the methods of Scatchard (Ann. New York Acad. Sci. 51:660-672, 1949, and Hill (J. Physiol. 40:IV-VIII, 1910), to provide estimates for the maximum number of binding sites (Bmax) and the equilibrium dissociation constant (Ka).
# In displacement experiments, inhibition curves were analyzed by either logit-log plots or the iterative curve fitting computer program ALLFIT (DeLean, Munson and Redbard, 1978) to provide estimates of the IC50 and nH (apparent Hill coefficient) values).
# The inhibition constant (Ki) of the test compound was then calculated according to the Cheng-Prusoff equation: [formula] where [L] is the concentration of radiolabel and Ka is the equilibrium dissociation constant.
row,Ki [nM],Compound
1,493,"C[C@](CNC(=O)c1ccccc1)(Cc1c[nH]c2ccccc12)NC(=O)OC1C2CC3CC(C2)CC1C3 (stereo partly drawn) [Example 20, Carbamic acid, [2-(benzoylamino)-1-(1H-indol-3-ylmethyl)-1-methylethyl]-, tricyclo[3.3.1.1^3,7]dec-2-yl ester, (R)-]"
2,220,"CC(CNCC(O)c1ccccc1)(Cc1c[nH]c2ccccc12)NC(=O)OC1C2CC3CC(C2)CC1C3 (centres unmarked) [Example 5, Tricyclo[3.3.1.1^3,7]dec-2-yl [1-[(2-hydroxy-2-phenyl-ethyl)amino]-3-(1H-indol-3-yl)-2-methylprop-2-yl]-carbamate]"
3,40,"C[C@](Cc1c[nH]c2ccccc12)(NC(=O)OC1C2CC3CC(C2)CC1C3)C(=O)NC1(C(=O)O)CCCCC1 (stereo partly drawn) [Example 120, (R)-1-[[2-(1H-indol-3-ylmethyl)-2-methyl-1-oxo-2-[[(tricyclo[3.3.1.1^3,7]dec-2-yloxy)carbonyl]amino]ethyl]amino]cyclohexanoic acid]"
4,23,"CC(CNC(=O)O[C@@H]1C[C@@H]2CC[C@@]1(C)C2(C)C)(Cc1c[nH]c2ccccc12)C(=O)N[C@H](COC(=O)CCC(=O)O)Cc1ccccc1 (stereo partly drawn) [Example 56, Butanedioic acid, mono 2-[[2-(1H-indol-3-ylmethyl)-2-methyl-1-oxo-3-[[(1,7,7-trimethylbicyclo[2.2.1]hept-2-yloxy)carbonyl]-amino]propyl]amino]-3-phenylpropyl ester (Bicyclo system is 1S-endo, phenvlmethyl center is S. other center is RS)]"
5,374,"CC(=O)OC[C@H](Cc1ccccc1)NC[C@@](C)(Cc1c[nH]c2ccccc12)NC(=O)OC1C2CC3CC(C2)CC1C3 (relative stereo) [Example 7, [R-(R*,S*)]-β-[[2-(1H-indol-3-ylmethyl)-2-[[tricyclo-[3.3.1.1^3,7]dec-2-yloxvcarbonyl]amino]propyl]amino]-benzenepropanol acetate]"
6,560,"C[C@@](Cc1c[nH]c2ccccc12)(NC(=O)OC1C2CC3CC(C2)CC1C3)C(=O)NCCC(=O)N[C@@H](Cc1ccccc1)C(=O)O (stereo partly drawn) [Example 34, L-Phenylalanine, N-[N-[α-methyl-N-[(tricyclo-[3.3.1.1^3,7]dec-2-yloxy)carbonyl]-L-tryptophyl]-β-alanyl]-]"
7,50,C[C@](Cc1c[nH]c2ccccc12)(NC(=O)OC1C2CC3CC(C2)CC1C3)C(=O)NCC(=O)OCc1ccccc1 (some centres unmarked) [Example 36]
8,> 100,C[C@](CNC(=O)CCc1ccccc1)(Cc1c[nH]c2ccccc12)NC(=O)OC1C2CC3CC(C2)CC1C3 (some centres unmarked) [Example 21]
9,910,"C[C@@](Cc1c[nH]c2ccccc12)(NC(=O)OC1C2CC3CC(C2)CC1C3)C(=O)NCCC(=O)N[C@@H](Cc1ccccc1)C(N)=O (stereo partly drawn) [Example 27, L-Phenylalaninamide α-methyl-N-[(tricyclo[3.3.1.1^3,7]-dec-2-yloxy)carbonyl]-L-tryptophy-β-alanyl-]"
10,93,CC(CNC(=O)OC1C2CC3CC(C2)CC1C3)(Cc1c[nH]c2ccccc12)C(=O)N[C@H](COC(=O)CCC(=O)O)Cc1ccccc1 (some centres unmarked) [Example 57]
11,540,"C[C@@](Cc1c[nH]c2ccccc12)(NC(=O)OC1C2CC3CC(C2)CC1C3)C(=O)NCCC(=O)N[C@H](Cc1ccccc1)C(=O)O (stereo partly drawn) [Example 35, Benzenepropanoic acid, α-[[3-[[3-[(1H-indol-3-yl)-2-methyl-1-oxo-2-[[(tricyclo[3.3.1.1^3,7]dec-2-yloxy)-carbonyl]amino]propyl]amino]-1-oxopropyllamino-, [S-(R*,S*)]-]"
12,800,"C[C@](Cc1c[nH]c2ccccc12)(NC(=O)OC1C2CC3CC(C2)CC1C3)C(=O)NCCC(=O)N[C@H](CO)Cc1ccccc1 (stereo partly drawn) [Example 23, Carbamic acid, [2-[[3-[[1-(hydroxymethyl)-2-phenyl-ethyl]amino]-3-oxopropyl]amino]-1-(1H-indol-3-ylmethyl)-1-methyl-2-oxoethyl]-, tricyclo-[3.3.1.1^3,7]dec-2-vl ester. [R-(R*.S*)]-]"
13,240,"COC(=O)[C@@H](Cc1ccccc1)NC(=O)CCNC(=O)[C@@](C)(Cc1c[nH]c2ccccc12)NC(=O)OC1C2CC3CC(C2)CC1C3 (stereo partly drawn) [Example 29, 12-Oxa-2,5,9-triazatridecanoic acid, 3-(1H-indol-3-ylmethyl)-3-methyl-4.8.11-trioxo-10-(phenvlmethyl)-, tricyclo[3.3.1.1^3,7]dec-2-vl ester, [R-(R*,R*)]-]"
14,180,"C[C@](Cc1c[nH]c2ccccc12)(NC(=O)OC1C2CC3CC(C2)CC1C3)C(=O)NC1(CO)CCCC1 (stereo partly drawn) [Example 119, Tricyclo[3.3.1.1^3,7]dec-2-yl ester (R) [2-[[1-(hydroxymethyl)cyclopentyl]amino]-1-(1H-indol-3-ylmethyl)-1-methyl-2-oxoethyl]carbamate]"
15,59,C[C@](Cc1c[nH]c2ccccc12)(NC(=O)OC1C2CC3CC(C2)CC1C3)C(=O)NC1(CO)CCCCC1 (some centres unmarked) [Example 122]
16,1100,"C[C@@](Cc1c[nH]c2ccccc12)(NC(=O)OC1C2CC3CC(C2)CC1C3)C(=O)NCCC(=O)N[C@H](CO)Cc1ccccc1 (relative stereo) [Example 24, Carbamic acid, [1-(1H-indol-3-ylmethyl)-2-[[3-[[1-hydroxymethyl)-2-iphenylethyl]amino]-3-oxopropyl]-amino]-1-methyl-2-oxoethyl]-, tricyclo[3.3.1.1^3,7]dec-2-ylester, [S-(R*,R*)]-]"
17,353,"C[C@](CNC(=O)CCCc1ccccc1)(Cc1c[nH]c2ccccc12)NC(=O)OC1C2CC3CC(C2)CC1C3 (stereo partly drawn) [Example 19, Carbamic acid, [1-(1H-indol-3-ylmethyl)-1-methyl-2-[(1-oxo-4-phenylbutyl)amino]ethyl]-, tricyclo-[3.3.1.1^3,7]dec-2-yl ester (R)-]"
